The text below walks through data of publication PMC5958098, “The trimeric solution structure and fucose-binding mechanism of the core fucosylation-specific lectin PhoSL” (Scientific Reports, 2018).

A word on the Kd: it is the free concentration of one partner at which half of the binding sites on the other are occupied at equilibrium, for simple one-to-one binding. The stoichiometry N is a count of units in the complex or per binding partner.

The target of data set [1] is T1, PhoSL (Pholiota squarrosa, UniProt A0A384E107).
T1 construct: chemically synthesized 40-residue peptide, free termini, no tag, reduced Cys (DTT), homotrimer; […]; repeat 1 of a 180-residue polypeptide; differs from literature peptide at positions 23, 27, 35, 40
Description: NMR chemical shift titration. It counts as binding. Particulars: 20 mM Tris-HCl pH 7.5, 0.2 mM DTT, 308 K; 50 μM peptide (as monomer); average for the two anomers.

Data set [2] concerns the molecule itself. Description: SEC; Superdex 75 10/300 with marker proteins; 96 μM PhoSL peptide; 20 mM Tris-HCl pH 7.5, 100 mM NaCl.

With `C[C@@H]1OC(O)[C@@H](O)[C@H](O)[C@@H]1O` (mixture of isomers) [L-fucose], the dissociation constant (Kd) in data set [1] was 5.9 ± 0.2 mM.

B1: PhoSL peptide (core α1–6 fucosylation-specific lectin from Pholiota squarrosa), chemically synthesized, 40 residues (peptide)
chain: APVPVTKLVCDGDTYKCTAYLDYGDGKWVAQWDTAVFHTT
notes: PhoSL lectin of Pholiota squarrosa; it corresponds to the first of three PhoSL-like repeats of the 180-residue polypeptide; numbers count on: the 40-residue peptide; No N-terminal acetylation and no C-terminal amidation; Cys10 and Cys17 were reduced (DTT) in the NMR samples; Homotrimer by gel filtration combined with cross-linking, and by the NMR structure; also called PhoSL trimer; source: …
Take B1: in data set [2], the “stoichiometry N” value worked out at 3.
